Measurements reported in patent US20190055212A1, “HISTONE DEMETHYLASE INHIBITORS” (priority 2016, published 2019).

Biological target: KDM5B enzyme (Homo sapiens, UniProt Q9UGL1)
Assay: KDM5B HTRF (TR-FRET) demethylase inhibition assay
Assay type: biochemical
Details: 1.2 nM KDM5B, 30 nM Biotin-H3K4Me3 1-21 substrate, 10 point dose-response
Protocol: Ten point dose-response curves for compounds shown in Table 1 were determined using a homogeneous time resolved fluorescence (HTRF) assay (Reaction Biology Corp, Malvern, Pa.). This assay combines fluorescence resonance energy transfer (FRET) with time resolve (TR) measurements (TR-FRET). The KDM5B α-ketoglutarate-dependent demethylase activity is calculated by measuring demethylation of a biotin labeled histone tri-methylated H3K4 substrate using an europium-cryptate (Eu)-labeled antibody donor specific for dimethylated histone H3K4 and a Streptavidin-XL665 acceptor that binds to the biotin group of substrate, and detecting FRET by exciting the reaction mixture at 320 nm and reading dual emissions at 615 nm and 665 nm.
Briefly, compounds disclosed herein were solubilized in DMSO and a series of 10, three-fold serial dilutions were made for each compound in 100% DMSO. The initial starting concentration for the serial dilutions of each compound was 10 μM or 100 μM. Control samples lacking compound, KDM5B enzyme or various reaction components also were prepared and processed in parallel with compound test samples.
An aliquot of each serial dilution of test compound was added to a 384 well plate (Corning Cat #3572) containing 1.2 nM KDM5B enzyme suspended in 50 mM Hepes, pH7.5, 50 mM NaCl, 0.01% Tween 20, 0.1% BSA, and 1% DMSO (final concentrations) in a 10 microliter reaction volume using a LABCYTE ECHO liquid handler. The samples were mixed, subjected to centrifugation and the plate was pre-incubated at room temperature for 15 min, to which 30 nM Biotin-H3K4Me3 1-21 substrate (Anaspec Cat #64192), 20 μM […] and 20 μM α-ketoglutarate co-factors, and 100 μM Ascorbate were added to initiate the enzymatic reaction. The reaction mixture was incubated at room temperature for 45 minutes. A 10 μl aliquot of a detection mixture of Eu-labeled anti-histone H3K4Me2 antibody (CisBIO Cat #610AXLB) and Streptavidin-XL665 (CisBIO Cat #610 SAXLB) in 200 mM potassium fluoride and 10 mM EDTA was added and kinetic measurements were read at 5 minute intervals for a period of 30 minutes using an Envision Multiplate Reader (PerkinElmer Model 2102; excitation at 320 nm and emmission reads at 615 nm and 665 nm). The IC50 value for each compound was determined from the 665/615 ratio obtained for each 10 point dose-response curve using GraphPad Prism 4 software with a sigmodial dose response. Key: “A”≤100 nM; “B”>100 nM-≤500 nM; “C”>500 nM and N/D is not determined.

Sequence of KDM5B enzyme (Q9UGL1 whole entry): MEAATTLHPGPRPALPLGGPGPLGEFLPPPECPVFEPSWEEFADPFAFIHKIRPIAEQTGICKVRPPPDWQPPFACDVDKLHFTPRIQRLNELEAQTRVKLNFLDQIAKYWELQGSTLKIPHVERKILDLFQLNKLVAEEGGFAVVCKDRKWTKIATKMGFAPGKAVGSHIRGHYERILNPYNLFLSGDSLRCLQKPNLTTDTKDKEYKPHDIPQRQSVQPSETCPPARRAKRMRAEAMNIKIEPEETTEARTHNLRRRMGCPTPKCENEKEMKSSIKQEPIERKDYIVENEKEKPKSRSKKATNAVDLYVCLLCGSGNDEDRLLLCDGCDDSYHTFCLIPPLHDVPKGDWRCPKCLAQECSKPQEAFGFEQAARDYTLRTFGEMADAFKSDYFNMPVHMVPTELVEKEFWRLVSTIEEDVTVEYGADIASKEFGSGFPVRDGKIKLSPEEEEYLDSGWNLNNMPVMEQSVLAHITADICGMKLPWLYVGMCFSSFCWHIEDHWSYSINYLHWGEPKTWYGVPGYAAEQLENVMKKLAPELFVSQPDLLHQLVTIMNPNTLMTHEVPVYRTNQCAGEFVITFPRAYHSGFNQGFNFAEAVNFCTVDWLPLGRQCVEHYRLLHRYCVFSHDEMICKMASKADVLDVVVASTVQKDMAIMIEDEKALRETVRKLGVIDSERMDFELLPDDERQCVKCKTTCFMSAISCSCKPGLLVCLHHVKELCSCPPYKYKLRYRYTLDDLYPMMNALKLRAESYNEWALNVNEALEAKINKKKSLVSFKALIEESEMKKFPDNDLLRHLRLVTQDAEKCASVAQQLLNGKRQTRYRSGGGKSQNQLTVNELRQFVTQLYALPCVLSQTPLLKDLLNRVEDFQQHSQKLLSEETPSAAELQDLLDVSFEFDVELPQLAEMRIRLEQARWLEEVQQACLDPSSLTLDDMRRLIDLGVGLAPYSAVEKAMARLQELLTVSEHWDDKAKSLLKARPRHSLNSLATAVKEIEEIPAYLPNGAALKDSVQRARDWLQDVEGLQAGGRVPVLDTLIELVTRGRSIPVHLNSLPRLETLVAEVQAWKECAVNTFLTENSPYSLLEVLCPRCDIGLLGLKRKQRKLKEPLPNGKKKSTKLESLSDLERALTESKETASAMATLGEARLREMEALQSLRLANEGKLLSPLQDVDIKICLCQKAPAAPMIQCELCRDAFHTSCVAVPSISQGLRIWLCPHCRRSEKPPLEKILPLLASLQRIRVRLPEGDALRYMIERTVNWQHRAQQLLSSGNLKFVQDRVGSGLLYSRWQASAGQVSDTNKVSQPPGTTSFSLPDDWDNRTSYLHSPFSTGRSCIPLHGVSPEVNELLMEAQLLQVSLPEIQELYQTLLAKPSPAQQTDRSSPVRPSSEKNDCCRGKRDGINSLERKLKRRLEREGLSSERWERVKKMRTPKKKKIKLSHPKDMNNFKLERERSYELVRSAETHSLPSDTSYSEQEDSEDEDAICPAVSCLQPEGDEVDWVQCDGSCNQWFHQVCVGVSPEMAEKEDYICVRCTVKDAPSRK

IC50 [nM] | Compound
100 to 500 | O=C(O)c1ccnc(-c2nc3ccccc3n2Cc2ccc(Cl)cc2)c1 [Example 1]
≤ 100 | COc1ccc(Cn2c(-c3cc(C(=O)O)ccn3)nc3ccccc32)cc1 [Example 2]
100 to 500 | COc1ccc(CCn2c(-c3cc(C(=O)O)ccn3)nc3ccccc32)cc1 [Example 3]
≤ 100 | COc1ccc(-n2c(-c3cc(C(=O)O)ccn3)nc3ccccc32)cc1 [Example 4]
> 500 | COc1cc(C)ccc1CCn1ccnc1-c1cc(C(=O)O)ccn1 [Example 5]
100 to 500 | COc1cc(Cl)ccc1CCn1ccnc1-c1cc(C(=O)O)ccn1 [Example 6]
100 to 500 | Cc1cc(Cl)ccc1CCn1ccnc1-c1cc(C(=O)O)ccn1 [Example 7]
> 500 | O=C(O)c1ccnc(-c2nccn2CCc2ccc(Cl)cc2)c1 [Example 8]
100 to 500 | N#Cc1ccccc1Cn1ccnc1-c1cc(C(=O)O)ccn1 [Example 9]
100 to 500 | O=C(O)c1ccnc(-c2nccn2Cc2ccc(Cl)cc2)c1 [Example 10]
> 500 | CCN1CCN(c2ccc(Cn3ccnc3-c3cc(C(=O)O)ccn3)c3c2CCCC3)CC1 [Example 11]
≤ 100 | Cn1c(-c2ccccn2)cnc1-c1cc(C(=O)O)ccn1 [Example 12]
> 500 | Cn1cc(-c2ccccn2)nc1-c1cc(C(=O)O)ccn1 [Example 13]
100 to 500 | O=C(O)c1ccnc(-c2ncc(CO)n2CCc2ccc(Cl)cc2)c1 [Example 14]
≤ 100 | CNC(=O)c1cnc(-c2cc(C(=O)O)ccn2)n1CCc1ccc(Cl)cc1 [Example 15]
100 to 500 | Cc1ccc(-n2ccnc2-c2cc(C(=O)O)ccn2)cc1 [Example 16]
100 to 500 | CN(Cc1ccc(F)cc1)Cc1ccc2nc(-c3cc(C(=O)O)ccn3)n(CCc3ccc(F)cc3)c2c1 [Example 28]
≤ 100 | O=C(O)c1ccnc(-c2nc3ccccc3n2CC2CCOc3ccccc32)c1 (stereo not drawn) [Example 29]
100 to 500 | O=C(O)c1ccnc(-c2ncc(-c3ccccn3)n2CCc2ccc(Cl)cc2)c1 [Example 31]
100 to 500 | O=C(O)c1ccnc(-c2ncc(-c3ccccn3)n2Cc2ccc(Oc3ccccc3)cc2)c1 [Example 34]

IC50 [nM] | Compound
> 500 | COc1ccc(N(C)c2ccc(Cn3ccnc3-c3cc(C(=O)O)ccn3)cc2)cc1 [Example 36]
100 to 500 | CCc1ccc(N(C)c2ccc3c(c2)OCCC3Cn2ccnc2-c2cc(C(=O)O)ccn2)cc1 (stereo not drawn) [Example 42]
≤ 100 | CN(CCc1cnc(-c2cc(C(=O)O)ccn2)n1CCc1ccc(F)cc1)Cc1ccc(Cl)cc1 [Example 47]
≤ 100 | O=C(O)c1ccnc(-c2ncc(CCN3CCC(c4cc(Cl)cc(Cl)c4)CC3)n2CCc2ccc(F)cc2)c1 [Example 51]
100 to 500 | COc1cc(CN2CCC(NCCc3ccccc3)CC2)ccc1Cn1ccnc1-c1cc(C(=O)O)ccn1 [Example 54]
100 to 500 | CN(Cc1ccccn1)Cc1cnc(-c2cc(C(=O)O)ccn2)n1CCc1ccc(F)cc1 [Example 62]
100 to 500 | CN(Cc1ccc(N2CCOCC2)cc1)Cc1cnc(-c2cc(C(=O)O)ccn2)n1CCc1ccc(F)cc1 [Example 66]
≤ 100 | CN(Cc1cnc(-c2cc(C(=O)O)ccn2)n1CCc1ccc(F)cc1)C1CCN(Cc2ccccc2)CC1 [Example 68]
100 to 500 | O=C(O)c1ccnc(-c2ncc(CN(CCO)Cc3ccccc3)n2CCc2ccc(F)cc2)c1 [Example 70]
≤ 100 | CN1CCN(Cc2cnc(-c3cc(C(=O)O)ccn3)n2CCc2ccc(F)cc2)C(c2ccccc2)C1 (stereo not drawn) [Example 72]
≤ 100 | O=C(O)c1ccnc(-c2ncc(CN3CCC(OC4CCCCC4)CC3)n2CCc2ccc(F)cc2)c1 [Example 74]
≤ 100 | O=C(O)c1ccnc(-c2ncc(CN3CCN(CCCOc4ccccc4)CC3)n2CCc2ccc(F)cc2)c1 [Example 76]
≤ 100 | O=C(O)c1ccnc(-c2ncc(CN3CCN(Cc4ccc(C(F)(F)F)cc4)CC3)n2CCc2ccc(F)cc2)c1 [Example 78]
≤ 100 | O=C(O)c1ccnc(-c2ncc(CN3CCCN(c4ccccc4)CC3)n2CCc2ccc(F)cc2)c1 [Example 82]
≤ 100 | O=C(O)c1ccnc(-c2ncc(CN3CCc4c([nH]c5ccccc45)C3)n2CCc2ccc(F)cc2)c1 [Example 86]
> 500 | CCc1ccc(N(C)c2ccc3c(c2)OCCC3Cn2c(-c3cc(C(=O)O)ccn3)nc3ccccc32)cc1 (stereo not drawn) [Example 88]
> 500 | COc1ccc(N(C)c2ccc3c(c2)OCCC3Cn2c(-c3cc(C(=O)O)ccn3)nc3ccccc32)cc1 (stereo not drawn) [Example 90]
≤ 100 | CN1CCN(Cc2cnc(-c3cc(C(=O)O)ccn3)n2C)C(c2ccccc2)C1 (stereo not drawn) [Example 101]
≤ 100 | Cn1c(CN2CCN(Cc3ccc(C(F)(F)F)cc3)CC2)cnc1-c1cc(C(=O)O)ccn1 [Example 107]
